Measured values reported in paper PMC7819857, “Identification of Inhibitors of Integrin Cytoplasmic Domain Interactions With Syk” (Frontiers in Immunology, 2021).

Assays:
[1] = target: T1, integrin β3 cytoplasmic domain (bβ3(fl)) : GST-Syk(6-370) (Homo sapiens, UniProt P43405); test: ELISA-based orthogonal assay, bβ3(fl) and GST-Syk(6-370); format: binding
T1 construct: the tandem SH2 domains of Syk (residues 6-370); made in house; host or cells: E. coli BL21(DE3)
Experimental: For ELISA-based assays, 96-well plates (Costar cat# 9018) were coated overnight at 4°C with neutravidin (Thermo Scientific, cat#31050) in 10 mM Tris pH 9 and 100 mM NaCl. After overnight incubation, non-specific binding sites were blocked with bovine serum albumin (BSA) (2% w/v) for at least 1 h at room temperature. Plates were washed in 25 mM HEPES pH 7.5, 100 mM NaCl, 0.1% BSA, and 0.01% TritonX-100 (assay buffer), and indicated biotinylated β3 peptide was incubated for at least 2 h at room temperature (0.5–3 ug/ml in di-H2O). After washing in the assay buffer, GST-fusion proteins were added (50 ul, indicated concentrations) and incubated at room temperature for 1 h in assay buffer. For compound inhibition studies, compounds were added to GST-fusion proteins (at indicated concentrations) before they were added to plates. Plates were washed 3× with assay buffer (200 ul) to remove unbound GST-fusion protein. Horseradish peroxidase (HRP)-conjugated anti-GST antibody [Polyclonal anti-GST(Z-5)-HRP, Santa Cruz Biotechnology, cat #sc-459 0.2 ug/ml] was incubated in washed plates in 50 ul assay buffer for 45 min at room temperature. After washing, the signal was generated with 1-step Ultra TMB-ELISA (Thermo Scientific, cat#34028), stopped with 2 N H2SO4, and read on a plate reader (SPARK 10M/Tecan) at 450 nm.
Figure 3 Dose-response curves in primary and orthogonal screens. (A) AlphaScreen dose-response curves. […] Data are expressed as mean fluorescence (Fl520) ± range from duplicates, and one representative experiment of “n” performed is shown. (B) Orthogonal ELISA-based dose-response assays. […] Data are expressed as mean abs450 ± SEM from triplicate determinations, and one of three representative experiments is shown. (C) Ceftazidime inhibition of β3 peptide binding to Syk from THP-1 whole cell lysate. THP-1 cell lysate (100 ug) was treated with or without ceftazidime (Ctaz) before incubation with β3-coated avidin-agarose beads, and bound Syk was measured by western blot (example shown in inset). Blank beads served as a negative control. […]

[2] = tested on: Syk phosphorylation in THP-1 cells; test: Integrin α4β1-induced phosphorylation of Syk in THP-1 cells plated on CS-1; format: cell-based, human
Experimental: Compound loading of cells was facilitated by glycerol shock ([32], [33]). Methods were first optimized with the cell-impermeable fluorophore Sulfo-Cy5 (see Supplemental Figure S5 ). For analysis of compound inhibition of integrin signaling, 3 × 10^6 THP-1 cells were incubated in 200 ul serum-free RPMI containing 15% glycerol and ceftazidime (at indicated concentrations) for 1 h at 20°C. RPMI (3 ml, room temperature) containing ceftazidime (at indicated concentrations) was added to the cells to dilute the glycerol, and the cells were further incubated for 10 min (room temperature). Cells were then plated onto CS-1-BSA-coated plates for 15 min at 37°C, lysed in RIPA buffer (1% Triton X-100, 50 mM Tris-HCl pH 7.2, 150 mM NaCl, 0.25% NaDOC, 0.05% SDS, 2 mM PMSF, 1 mM NaF, 1 mM Na3VO4, and protease inhibitor cocktail) (AEBSF, Aprotinin, E-64, Bestatin, Leupeptin and Pepstatin; VWR Cat#97063-010), and the lysates were subjected to Western blot as described below.
Syk phosphorylation assays were performed by immobilizing vascular cell adhesion molecule-1 (VCAM)-1 (3 ug/ml), CS-1-BSA (10 ug/ml), or specific monoclonal antibodies (anti-FcγRI mAb 276426, anti-α4β1 mAb 19H8, anti-β2 mAb 76C3, anti-αvβ3 mAb LM609 all at 5 ug/ml) overnight at 4°C in Tris-HCl pH 7.5, 150 mM NaCl, in 6-well plates (non-tissue culture treated, Becton Dickenson, cat# BD351146). […] After electrophoresis, proteins were transferred to nitrocellulose for 1 h 100 V room temperature, blocked in 5% non-fat milk in TBS-T, and probed with the indicated primary antibody at 1:1,000 overnight at 4°C, followed by species-appropriate HRP secondary antibody (Southern Biotech) at 1:5,000 (30 min at room temperature), and detected using Pierce West Pico (Thermo Scientific cat# 34580). […]
Figure 4 Ceftazidime inhibition of integrin signaling. (A) Dose-response curves comparing ceftazidime antagonist activity against integrin β1A, β2, and β3 cytoplasmic domains binding to Syk as measured in AlphaScreen assays. […] Data are expressed as mean fluorescence (Fl520) ± the range from duplicate determinations. […]

inhibitory activity in ELISA-based orthogonal assay [1]: remained active
SMILES: CC(C)(O/N=C(\C(=O)N[C@@H]1C(=O)N2C(C(=O)[O-])=C(C[n+]3ccccc3)CS[C@H]12)c1csc(N)n1)C(=O)O [ceftazidime]
integrin α4β1 induced phosphorylation of Syk ([2]; 100 µM loaded by glycerol shock, plated on CS-1, immunoprecipitation and western blot): inhibited | α4β1-induced phosphorylation of Syk (pY352) ([2]; ceftazidime loaded by glycerol shock, indicated doses, cells plated on CS-1): inhibited | α4β1 signaling through Syk ([2]; drug simply added to THP-1 cells, no glycerol loading): negative
